Results: ChEMBL document CHEMBL3885861, “Open TG-GATES”

Species on record: Rattus norvegicus
Assay: Open TG-GATES - Regimen: Single
Format: toxicity, organism-based, Sprague-Dawley
Parameters: regimen Single, gender Male, age 6 weeks
Conditions: in vivo, po, route gavage; for APTT / Bas / Eos / Fbg / Hb / Ht / Lym / MCH / MCHC / MCV / Mono / Neu / PT / Plat / RBC / Ret / WBC: tissue Blood; for KIDNEY_L / KIDNEY_R / KIDNEY_TOTAL: tissue Kidney; for LIVER: tissue Liver; for ALP / ALT / AST / BUN / CRE / Ca / Cl / DBIL / GLC / IP / K / LDH / Na / PL / RALB / TBIL / TC / TG / TP / gamma-GTP: tissue Plasma
[1] = 0 mg/kg, 3 h, dose level Control
[2] = 0 mg/kg, 6 h, dose level Control
[3] = 0 mg/kg, 9 h, dose level Control
[4] = 0 mg/kg, 24 h, dose level Control
[5] = 100 mg/kg, 24 h, dose level Low

## COC(=O)C1=C(C)NC(C)=C(C(=O)OC)C1c1ccccc1[N+](=O)[O-] [NIFEDIPINE]
[1]
  TERMINAL_BW: 197.5 g
  APTT: 16.4 s
  Bas: 0.2%
  Eos: 0.8%
  Fbg: 271 mg/dL
  Hb: 13.3 g/dL
  Ht: 41.5%
  Lym: 74.2%
  MCH: 20.8 pg
  MCHC: 32.1%
  MCV: 64.8 fL
  Mono: 2.6%
  Neu: 21.2%
  PT: 14.8 s
  Plat: 120 x10_4/uL
  RBC: 641.4 x10_4/ul
  Ret: 8.7%
  WBC: 85.8 x10_2/uL
  KIDNEY_L: 0.9 g
  KIDNEY_R: 0.9 g
  KIDNEY_TOTAL: 1.8 g
  LIVER: 8.4 g
  ALP: 1457.4 IU/L
  ALT: 49.6 IU/L
  AST: 81.8 IU/L
  BUN: 9.4 mg/dL
  CRE: 0.2 mg/dL
  Ca: 10.6 mg/dL
  Cl: 105.6 meq/L
  DBIL: 0.012 mg/dL
  GLC: 178.4 mg/dL
  IP: 9.6 mg/dL
  K: 4.4 meq/L
  LDH: 90.8 IU/L
  Na: 142 meq/L
  PL: 128.2 mg/dL
  RALB: 2.5 g/dL
  TBIL: 0.044 mg/dL
  TC: 70.2 mg/dL
  TG: 42.4 mg/dL
  TP: 5.2 g/dL
  gamma-GTP: 1 IU/L
[2]
  TERMINAL_BW: 197 g
  APTT: 16.6 s
  Bas: 0.2%
  Eos: 1%
  Fbg: 298 mg/dL
  Hb: 13.5 g/dL
  Ht: 42.2%
  Lym: 71.2%
  MCH: 21.1 pg
  MCHC: 32%
  MCV: 65.8 fL
  Mono: 3.2%
  Neu: 23.6%
  PT: 15 s
  Plat: 127.7 x10_4/uL
  RBC: 641.2 x10_4/ul
  Ret: 8.8%
  WBC: 94.9 x10_2/uL
  KIDNEY_L: 0.9 g
  KIDNEY_R: 0.9 g
  KIDNEY_TOTAL: 1.7 g
  LIVER: 8.2 g
  ALP: 1485.2 IU/L
  ALT: 43.4 IU/L
  AST: 71 IU/L
  BUN: 9 mg/dL
  CRE: 0.2 mg/dL
  Cl: 107.4 meq/L
  DBIL: 0.008 mg/dL
  GLC: 177.8 mg/dL
  IP: 9.7 mg/dL
  K: 4.2 meq/L
  LDH: 70.4 IU/L
  Na: 144 meq/L
  PL: 139.8 mg/dL
  RALB: 2.5 g/dL
  TBIL: 0.036 mg/dL
  TC: 78.8 mg/dL
  TG: 56 mg/dL
  TP: 5.4 g/dL
  gamma-GTP: 1 IU/L
[3]
  TERMINAL_BW: 193.8 g
  APTT: 16 s
  Bas: 0%
  Eos: 1%
  Fbg: 297 mg/dL
  Hb: 13.1 g/dL
  Ht: 40.6%
  Lym: 80.6%
  MCH: 21 pg
  MCHC: 32.4%
  MCV: 65 fL
  Mono: 2%
  Neu: 15.8%
  PT: 14.7 s
  Plat: 120.3 x10_4/uL
  RBC: 626.4 x10_4/ul
  Ret: 9%
  WBC: 65.5 x10_2/uL
  KIDNEY_L: 0.9 g
  KIDNEY_R: 0.9 g
  KIDNEY_TOTAL: 1.7 g
  LIVER: 7.4 g
  ALP: 1438.2 IU/L
  ALT: 35.6 IU/L
  AST: 67 IU/L
  BUN: 8.2 mg/dL
  CRE: 0.2 mg/dL
  Ca: 10.4 mg/dL
  Cl: 106.6 meq/L
  DBIL: 0.002 mg/dL
  GLC: 162.8 mg/dL
  IP: 10.2 mg/dL
  K: 3.7 meq/L
  LDH: 61.4 IU/L
  Na: 143.4 meq/L
  PL: 130.6 mg/dL
  RALB: 2.5 g/dL
  TBIL: 0.04 mg/dL
  TC: 79 mg/dL
  TG: 18.4 mg/dL
  TP: 5.3 g/dL
  gamma-GTP: 1.2 IU/L
[4]
  TERMINAL_BW: 213.5 g
  APTT: 16.3 s
  Bas: 0%
  Eos: 1%
  Fbg: 285.8 mg/dL
  Hb: 13.1 g/dL
  Ht: 40.6%
  Lym: 73.2%
  MCH: 21.2 pg
  MCHC: 32.3%
  MCV: 65.5 fL
  Mono: 3%
  Neu: 21.8%
  PT: 14.2 s
  Plat: 118.4 x10_4/uL
  RBC: 620 x10_4/ul
  Ret: 8.7%
  WBC: 87.2 x10_2/uL
  KIDNEY_L: 0.9 g
  KIDNEY_R: 0.9 g
  KIDNEY_TOTAL: 1.8 g
  LIVER: 9.6 g
  ALP: 1663.2 IU/L
  ALT: 44 IU/L
  AST: 75 IU/L
  BUN: 15.2 mg/dL
  CRE: 0.2 mg/dL
  Ca: 11 mg/dL
  Cl: 106.6 meq/L
  DBIL: 0.018 mg/dL
  GLC: 187 mg/dL
  IP: 8.3 mg/dL
  K: 4.3 meq/L
  LDH: 67.4 IU/L
  Na: 145.6 meq/L
  PL: 156.8 mg/dL
  RALB: 2.7 g/dL
  TBIL: 0.03 mg/dL
  TC: 87.8 mg/dL
  TG: 62.6 mg/dL
  TP: 5.7 g/dL
  gamma-GTP: 1 IU/L
100 mg/kg, 3 h, dose level Low
  TERMINAL_BW: 201.3 g
  Bas: 0%
  Eos: 1%
  Fbg: 279.6 mg/dL
  Hb: 12.9 g/dL
  Ht: 39.2%
  Lym: 71.8%
  MCH: 20.6 pg
  MCHC: 32.8%
  MCV: 62.6 fL
  Mono: 4.4%
  PT: 14.9 s
  Plat: 123.6 x10_4/uL
  RBC: 625.8 x10_4/ul
  Ret: 9.3%
  WBC: 127.1 x10_2/uL
  KIDNEY_L: 0.9 g
  KIDNEY_R: 0.9 g
  KIDNEY_TOTAL: 1.8 g
  LIVER: 7.9 g
  ALP: 1399 IU/L
  ALT: 44.8 IU/L
  AST: 78.6 IU/L
  CRE: 0.3 mg/dL
  Ca: 11.7 mg/dL
  Cl: 98.2 meq/L
  DBIL: 0.01 mg/dL
  GLC: 227.6 mg/dL
  IP: 9 mg/dL
  K: 4.7 meq/L
  LDH: 89.4 IU/L
  Na: 135.6 meq/L
  PL: 132 mg/dL
  RALB: 2.5 g/dL
  TBIL: 0.042 mg/dL
  TC: 76.2 mg/dL
  TG: 31.6 mg/dL
  TP: 5.3 g/dL
  gamma-GTP: 1.2 IU/L
100 mg/kg, 6 h, dose level Low
  TERMINAL_BW: 203.8 g
  APTT: 16.8 s
  Bas: 0%
  Eos: 0.4%
  Fbg: 278.2 mg/dL
  Hb: 12.8 g/dL
  Ht: 39.2%
  Lym: 76.2%
  MCH: 20.2 pg
  MCHC: 32.6%
  MCV: 61.7 fL
  Mono: 3.6%
  Neu: 18.6%
  PT: 15 s
  Plat: 124 x10_4/uL
  RBC: 634.8 x10_4/ul
  Ret: 9.2%
  WBC: 96.4 x10_2/uL
  KIDNEY_L: 0.9 g
  KIDNEY_R: 0.9 g
  KIDNEY_TOTAL: 1.7 g
  LIVER: 7.8 g
  ALP: 1423.2 IU/L
  ALT: 54.6 IU/L
  AST: 82.2 IU/L
  BUN: 32.4 mg/dL
  CRE: 0.2 mg/dL
  Ca: 11.3 mg/dL
  Cl: 98.6 meq/L
  DBIL: 0.01 mg/dL
  GLC: 220.6 mg/dL
  IP: 10.7 mg/dL
  K: 5.2 meq/L
  LDH: 72.8 IU/L
  Na: 135.8 meq/L
  PL: 141.2 mg/dL
  RALB: 2.6 g/dL
  TBIL: 0.042 mg/dL
  TC: 86.4 mg/dL
  TG: 20.8 mg/dL
  TP: 5.5 g/dL
  gamma-GTP: 1.2 IU/L
100 mg/kg, 9 h, dose level Low
  TERMINAL_BW: 204.8 g
  APTT: 15.8 s
  Bas: 0%
  Eos: 0.6%
  Fbg: 292.2 mg/dL
  Hb: 12.7 g/dL
  Ht: 38.7%
  Lym: 80.2%
  MCH: 20.8 pg
  MCHC: 32.9%
  MCV: 63.3 fL
  Mono: 2.8%
  Neu: 14.8%
  PT: 14.6 s
  Plat: 127.7 x10_4/uL
  RBC: 610.8 x10_4/ul
  Ret: 9.7%
  WBC: 116.7 x10_2/uL
  KIDNEY_L: 0.9 g
  KIDNEY_R: 0.9 g
  KIDNEY_TOTAL: 1.7 g
  LIVER: 7.4 g
  ALP: 1305.6 IU/L
  ALT: 46.4 IU/L
  AST: 75.6 IU/L
  BUN: 17.8 mg/dL
  CRE: 0.2 mg/dL
  Ca: 10.9 mg/dL
  Cl: 102 meq/L
  DBIL: 0.008 mg/dL
  GLC: 178.6 mg/dL
  IP: 10.8 mg/dL
  K: 4.6 meq/L
  LDH: 76 IU/L
  Na: 138.6 meq/L
  PL: 152 mg/dL
  RALB: 2.6 g/dL
  TBIL: 0.046 mg/dL
  TC: 90.6 mg/dL
  TG: 28.2 mg/dL
  TP: 5.4 g/dL
  gamma-GTP: 1.2 IU/L
[5]
  TERMINAL_BW: 206.2 g
  APTT: 16.5 s
  Bas: 0%
  Eos: 1%
  Fbg: 267.8 mg/dL
  Hb: 13 g/dL
  Ht: 40.5%
  Lym: 65.6%
  MCH: 20.8 pg
  MCHC: 32.2%
  MCV: 64.5 fL
  Mono: 3.8%
  Neu: 29%
  PT: 13.9 s
  Plat: 133.1 x10_4/uL
  RBC: 629 x10_4/ul
  Ret: 8.8%
  WBC: 87.9 x10_2/uL
  KIDNEY_L: 0.9 g
  KIDNEY_R: 0.9 g
  KIDNEY_TOTAL: 1.8 g
  LIVER: 9.3 g
  ALP: 2046.4 IU/L
  ALT: 44.4 IU/L
  AST: 70.8 IU/L
  BUN: 14.6 mg/dL
  CRE: 0.2 mg/dL
  Ca: 10.6 mg/dL
  Cl: 109.4 meq/L
  DBIL: 0.016 mg/dL
  GLC: 177 mg/dL
  IP: 7.4 mg/dL
  K: 4.4 meq/L
  LDH: 82.6 IU/L
  Na: 146 meq/L
  PL: 132.8 mg/dL
  RALB: 2.6 g/dL
  TBIL: 0.03 mg/dL
  TC: 68.4 mg/dL
  TG: 87.8 mg/dL
  TP: 5.5 g/dL
  gamma-GTP: 1.2 IU/L
300 mg/kg, 3 h, dose level Middle
  TERMINAL_BW: 203.9 g
